Key:
HSV-1 McKrae Strain [1] = test: Direct virucidal efficacy against HSV-1 on HFF monolayers; format: cell-based; conditions: for virucidal efficacy (HSV-1 titer): 24 h PI
HSV-1 McKrae Strain [2] = test: Intracellular antiviral activity against HSV-1 in HFF monolayers; format: cell-based; conditions: for antiviral efficacy (HSV-1 titer): Experiment 7 (Table 18), 24 h PI
Protocol: HSV-1 McKrae Strain was diluted to a final concentration of 10^5 PFU/ml in minimal essential medium (MEM). Hereinafter, this dilution is referred to as the HSV-1 Suspension for convenience.
With sufficient stirring, all the compounds completely dissolved.
HFF cell monolayers were inoculated with the HSV-Suspension prepared as above by absorption for thirty minutes at 37° C. After absorption of the virus, the inoculum was aspirated from the cell monolayers and the HSV-1 infected monolayers were rehydrated with medium containing the appropriate concentration of the solution of the compound by adding 500 microliters of each compound concentration to triplicate HSV-1 infected monolayers. All monolayers were incubated at 37° C. The developing HSV-1 cytopathology was monitored daily for two days by inverted light microscopy and titers were calculated by multiple […] analysis. For the intracellular anti-viral activity, "cell monolayer controls" were obtained using sham inoculated non-treated HFF cell monolayers along with the drug treated monolayers. "Positive controls" were obtained by using HSV-1 inoculated non-CTC compound treated HFF monolayers.

VZV = test: In vitro assay with VZV on HFF monolayers; format: cell-based; conditions: for virucidal efficacy (VZV titer): Table 20, 7 days PI
Protocol: VZV was grown to a CPE level in vitro assays with VZV of 3-4+ on HFF cell monolayers. The VZV was scraped from the flask, centrifuged and the cell pellet was resuspended in 10 ml of complete medium. One hundred to 200 μl of the VZV cell associated inoculum was inoculated onto confluent HFF cell monolayers by absorption for 60 minutes at 37° C. After absorption of the virus, the inoculum was aspirated from the cell monolayers.
The VZV-infected monolayers were rehydrated with medium containing the appropriate concentrations of compounds to be tested. All monolayers were incubated at 37° C. Development of VZV cytopathology was monitored daily for 7 days by inverted light microscopy. Titers were calculated by multiple regression analysis.
Sham-inoculated, non-treated HFF cell monolayers were included among with the drug-treated monolayers as cell monolayer controls.
VZV inoculated, non-treated HFF monolayers were included as positive controls.

HFF cells [3] = test: Neutral red uptake toxicity; format: cell-based, human; conditions: stationary cells
HFF cells [4] = test: Cell proliferation assay; format: cell-based, human; conditions: rapidly growing cells
Protocol: Twenty-four hours prior to assay, HFF cells are seeded in 6-well plates at a concentration of 2.5×10^4 cells per well in MEM containing 10% FBS. On the day of the assay, drugs are diluted serially in MEM containing 10% FBS at increments of 1:5 covering a range from 100 μg/ml to 0.03 μg/ml. […] The media from the wells is then aspirated and 2 ml of each drug concentration is then added to each well. The cells are then incubated in a Co2 incubator at 37° C. for 72 h. At the end of this time, the media-drug solution is removed and the cells washed. […] The cell-media mixture is then pipetted up and down vigorously to break up the cell suspension and 0.2 ml of the mixture is added to 9.8 ml of Isoton III and counted using a Coulter Counter. Each sample is counted three times with three replicate wells per sample.

CC(=NCCN=C(C)C(Cl)=C(C)[O-])C(Cl)=C(C)[O-].[Br-].[Co+3].c1c[nH]cn1.c1c[nH]cn1 [Compound 93]
virucidal efficacy (HSV-1 titer) (HSV-1 McKrae Strain [1]; Experiment 4 (Table 9), Run 1, 0.001 mg/ml): 10^5 PFU/ml | virucidal efficacy (HSV-1 titer) (HSV-1 McKrae Strain [1]; Experiment 4 (Table 9), Run 1, 0.5 mg/ml): 10^2 PFU/ml | virucidal efficacy (HSV-1 titer) (HSV-1 McKrae Strain [1]; Experiment 4 (Table 9), Run 1, 1 mg/ml): 0 PFU/ml | virucidal efficacy (HSV-1 titer) (HSV-1 McKrae Strain [1]; Experiment 4 (Table 9), Run 1, 5 mg/ml): 0 PFU/ml | virucidal efficacy (HSV-1 titer) (HSV-1 McKrae Strain [1]; Experiment 4 (Table 9), Run 2, 0.01 mg/ml): 10^2 PFU/ml | virucidal efficacy (HSV-1 titer) (HSV-1 McKrae Strain [1]; Experiment 4 (Table 9), Run 2, 0.1 mg/ml): 0 PFU/ml | virucidal efficacy (HSV-1 titer) (HSV-1 McKrae Strain [1]; Experiment 4 (Table 9), Run 2, 0.5 mg/ml): 0 PFU/ml | virucidal efficacy (HSV-1 titer) (HSV-1 McKrae Strain [1]; Experiment 4 (Table 9), Run 2, 1 mg/ml): 0 PFU/ml | virucidal efficacy (HSV-1 titer) (HSV-1 McKrae Strain [1]; Experiment 4 (Table 9), Run 2, 5 mg/ml): 0 PFU/ml | effective virucidal concentration IC50 (HSV-1 McKrae Strain [1]; Experiment 4 (Table 11), HSV-1): 500 µg/mL | effective virucidal concentration IC90 (HSV-1 McKrae Strain [1]; Experiment 4 (Table 11), HSV-1): > 1000 µg/mL | virucidal efficacy (HSV-1 titer) (HSV-1 McKrae Strain [1]; Experiment 6 (Table 16), 0.1 mg/ml): 10^2 PFU/ml | virucidal efficacy (HSV-1 titer) (HSV-1 McKrae Strain [1]; Experiment 6 (Table 16), 0.5 mg/ml): 0 PFU/ml | virucidal efficacy (HSV-1 titer) (HSV-1 McKrae Strain [1]; Experiment 6 (Table 16), 1 mg/ml): 0 PFU/ml | effective virucidal concentration IC50 (HSV-1 McKrae Strain [1]; Experiment 6 (Table 17), HSV-1): 100 µg/mL | efficacy in virucidal assay (comment) (HSV-1 McKrae Strain [1]; Experiment 6 comment, reduction in toxicity resulted in it): reduction in efficacy | antiviral efficacy (HSV-1 titer) (HSV-1 McKrae Strain [2]; 0.001 mg/ml): 10^5 PFU/ml | antiviral efficacy (HSV-1 titer) (HSV-1 McKrae Strain [2]; 0.5 mg/ml): 10^2 PFU/ml | antiviral efficacy (HSV-1 titer) (HSV-1 McKrae Strain [2]; 1 mg/ml): 0 PFU/ml | effective virucidal concentration IC50 (HSV-1 McKrae Strain [2]; Experiment 7 (Table 19), HSV-1): 500 µg/mL | virucidal efficacy (VZV titer) (VZV; 0.001 mg/ml): 10^4 PFU/ml | virucidal efficacy (VZV titer) (VZV; 0.01 mg/ml): 10^2 PFU/ml | virucidal efficacy (VZV titer) (VZV; 0.1 mg/ml, toxicity observation questionable): T? | effective virucidal concentration IC50 (VZV; Table 21, VZV): 10 µg/mL | toxicity IC50, neutral red uptake (HFF cells [3]): 27.3 MCG/ML | toxicity IC50, cell proliferation (HFF cells [4]): 25.0 MCG/ML

— patent publication US5756491A, “Antiviral cobalt-organic compounds” (priority 1991, dated 1998)
